# Measurements: patent US20240246935A1 (Plexium, Inc., priority 2021, published 2024)
# pEC50: −log10 of the molar value.
# Target: human E3 ligase component cereblon (CRBN) (Homo sapiens (Human), UniProt Q96SW2)
# Assay: Cereblon (CRBN) target engagement, NanoBRET TE Intracellular E3 Ligase Assay in transfected HEK-293T cells
# Details: read-out: CRBN Binding EC50
# Procedure, shortened: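 Live HEK-293T cells co-transfected overnight with NanoLuc-CRBN (CRBN at NanoLuc C-terminus) and DDB1 vectors (10:990 ng) were given CRBN tracer and an 11-point compound series for 2 h at 37° C. BRET read at 450/610 nm with extracellular NanoLuc inhibitor present; IC50 from four-parameter logistic fit.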
# human E3 ligase component cereblon (CRBN), sequence (Q96SW2 whole entry): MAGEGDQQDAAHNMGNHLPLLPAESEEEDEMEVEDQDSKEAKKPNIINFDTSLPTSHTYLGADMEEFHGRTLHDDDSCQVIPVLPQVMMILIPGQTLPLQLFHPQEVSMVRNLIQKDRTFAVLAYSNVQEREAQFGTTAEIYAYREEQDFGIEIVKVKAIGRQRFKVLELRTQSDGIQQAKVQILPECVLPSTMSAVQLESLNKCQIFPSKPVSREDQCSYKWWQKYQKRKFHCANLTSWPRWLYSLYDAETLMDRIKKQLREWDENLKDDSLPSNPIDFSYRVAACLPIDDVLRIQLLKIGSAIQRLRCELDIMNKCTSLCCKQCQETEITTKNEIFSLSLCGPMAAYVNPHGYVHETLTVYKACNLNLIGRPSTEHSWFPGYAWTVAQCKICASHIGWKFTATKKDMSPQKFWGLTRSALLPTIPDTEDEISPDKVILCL
# human E3 ligase component cereblon (CRBN), sequence (Q16531 whole entry partner): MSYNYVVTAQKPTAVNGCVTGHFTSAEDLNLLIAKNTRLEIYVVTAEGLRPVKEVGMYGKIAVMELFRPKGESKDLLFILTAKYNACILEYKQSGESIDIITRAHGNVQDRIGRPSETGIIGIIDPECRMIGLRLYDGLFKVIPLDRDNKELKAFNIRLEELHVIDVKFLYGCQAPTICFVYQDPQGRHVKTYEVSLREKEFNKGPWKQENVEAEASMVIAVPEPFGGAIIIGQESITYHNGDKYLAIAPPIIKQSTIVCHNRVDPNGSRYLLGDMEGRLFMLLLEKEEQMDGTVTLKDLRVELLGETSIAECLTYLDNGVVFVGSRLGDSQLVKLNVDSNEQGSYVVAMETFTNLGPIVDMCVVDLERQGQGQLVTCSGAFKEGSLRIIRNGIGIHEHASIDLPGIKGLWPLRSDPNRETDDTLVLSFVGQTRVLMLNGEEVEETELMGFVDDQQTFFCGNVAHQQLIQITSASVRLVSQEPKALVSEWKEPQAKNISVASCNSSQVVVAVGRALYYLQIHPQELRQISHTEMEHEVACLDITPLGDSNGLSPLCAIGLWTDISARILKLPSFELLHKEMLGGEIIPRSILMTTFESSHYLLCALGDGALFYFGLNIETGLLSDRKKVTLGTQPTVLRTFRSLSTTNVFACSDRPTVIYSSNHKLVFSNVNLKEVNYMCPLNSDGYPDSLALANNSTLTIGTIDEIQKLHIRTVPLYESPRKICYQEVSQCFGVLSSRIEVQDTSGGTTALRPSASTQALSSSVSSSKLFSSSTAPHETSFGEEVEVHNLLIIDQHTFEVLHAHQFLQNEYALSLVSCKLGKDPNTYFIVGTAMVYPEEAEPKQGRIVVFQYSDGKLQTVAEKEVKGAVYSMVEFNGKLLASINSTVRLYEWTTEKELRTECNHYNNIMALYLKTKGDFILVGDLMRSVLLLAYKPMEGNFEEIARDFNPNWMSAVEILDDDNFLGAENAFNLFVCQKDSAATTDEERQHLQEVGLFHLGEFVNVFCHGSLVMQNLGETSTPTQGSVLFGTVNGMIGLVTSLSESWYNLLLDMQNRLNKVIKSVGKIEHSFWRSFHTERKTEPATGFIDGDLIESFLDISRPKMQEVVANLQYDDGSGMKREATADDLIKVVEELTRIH
row,pEC50,Structure (SMILES)
1,7.62,"O=C1CCC(N2Cc3c(ccc(O[C@H]4CCCC[C@@H]4N4CC(c5ccccc5)C4)c3F)C2=O)C(=O)N1 (single isomer, unassigned) [Compound 66]"
2,8.70,"O=C1CCC(N2Cc3cc(O[C@H]4CCCC[C@@H]4N4CC(c5ccc(N6CCOCC6)cc5)C4)ccc3C2=O)C(=O)N1 (stereo partly drawn) [Compound 124, 3-(5-(((1S,2S)-2-(3-(4-morpholinophenyl)azetidin-1-yl)cyclohexyl)oxy)-1-oxoisoindolin-2-yl)piperidine-2,6-dione]"
3,7.77,"O=C1CCC(N2Cc3cc(O[C@H]4CCCC[C@@H]4N4CC(c5ccccc5C(F)(F)F)C4)ccc3C2=O)C(=O)N1 (stereo partly drawn) [Compound 129, 3-(1-oxo-5-(((1S,2S)-2-(3-(2-(trifluoromethyl)phenyl)azetidin-1-yl)cyclohexyl)oxy)isoindolin-2-yl)piperidine-2,6-dione]"
4,7.51,"O=C1CCC(N2Cc3cc(O[C@H]4CCCC[C@@H]4N4CC(c5ccccc5OC(F)(F)F)C4)ccc3C2=O)C(=O)N1 (stereo partly drawn) [Compound 36, 3-(1-oxo-5-(((1S,2S)-2-(3-(2-(trifluoromethoxy)phenyl)azetidin-1-yl)cyclohexyl)oxy)isoindolin-2-yl)piperidine-2,6-dione]"
5,7.96,"O=C1CCC(N2Cc3cc(O[C@H]4CCCC[C@@H]4N4CC(c5cccc(F)c5F)C4)ccc3C2=O)C(=O)N1 (stereo partly drawn) [Compound 64, 3-(5-(((1S,2S)-2-(3-(2,3-difluorophenyl)azetidin-1-yl)cyclohexyl)oxy)-1-oxoisoindolin-2-yl)piperidine-2,6-dione]"
6,7.60,"N#Cc1cc(Cl)ccc1C1CN([C@@H]2CCCC[C@@H]2Oc2ccc3c(c2)CN(C2CCC(=O)NC2=O)C3=O)C1 (mixture of isomers) [Compound 100, Rac-5-chloro-2-(1-((cis)-2-((2-(2,6-dioxopiperidin-3-yl)-1-oxoisoindolin-5-yl)oxy)cyclohexyl)azetidin-3-yl)benzonitrile]"
7,8.22,"O=C1CCC(N2Cc3cc(O[C@H]4CCCC[C@@H]4N4CC(c5cccc(F)c5)C4)ccc3C2=O)C(=O)N1 (stereo partly drawn) [Compound 111, 3-(5-(((1S,2S)-2-(3-(3-fluorophenyl)azetidin-1-yl)cyclohexyl)oxy)-1-oxoisoindolin-2-yl)piperidine-2,6-dione]"
8,7.85,"O=C1CCC(N2Cc3cc(O[C@H]4CCCC[C@@H]4N4CC(c5ccccc5O)C4)ccc3C2=O)C(=O)N1 (stereo partly drawn) [Compound 133, 3-(5-(((1S,2S)-2-(3-(2-hydroxyphenyl)azetidin-1-yl)cyclohexyl)oxy)-1-oxoisoindolin-2-1)piperidine-2,6-dione]"
9,7.92,"O=C1CCC(N2Cc3cc(O[C@H]4CCCC[C@@H]4N4CC(c5cccc(O)c5)C4)ccc3C2=O)C(=O)N1 (stereo partly drawn) [Compound 134, 3-(5-(((1S,2S)-2-(3-(3-hydroxyphenyl)azetidin-1-yl)cyclohexyl)oxy)-1-oxoisoindolin-2-yl)piperidine-2,6-dione]"
10,7.96,"O=C1CCC(N2Cc3cc(O[C@H]4CCCC[C@@H]4N4CC(c5ccc(O)cc5)C4)ccc3C2=O)C(=O)N1 (stereo partly drawn) [Compound 132, 3-(5-(((1S,2S)-2-(3-(4-hydroxyphenyl)azetidin-1-yl)cyclohexyl)oxy)-1-oxoisoindolin-2-yl)piperidine-2,6-dione]"
11,7.77,"O=C1CCC(N2Cc3cc(O[C@H]4CCCC[C@@H]4N4CC(c5cccc(OC(F)(F)F)c5)C4)ccc3C2=O)C(=O)N1 (stereo partly drawn) [Compound 35, 3-(1-oxo-5-(((1S,2S)-2-(3-(3-(trifluoromethoxy)phenyl)azetidin-1-yl)cyclohexyl)oxy)isoindolin-2-yl)piperidine-2,6-dione]"
12,8.22,"O=C1CC[C@@H](N2Cc3cc(O[C@H]4CCCC[C@@H]4N4CC(c5ccccc5)C4)ccc3C2=O)C(=O)N1 [Compound 125, (R)-3-(1-oxo-5-(((1S,2S)-2-(3-phenylazetidin-1-yl)cyclohexyl)oxy)isoindolin-2-yl)piperidine-2,6-dione]"
13,8.40,"O=C(O)CC(O)(CC(=O)O)C(=O)O.O=C1CCC(N2Cc3cc(O[C@H]4CCCC[C@@H]4N4CC(c5ccccc5)C4)ccc3C2=O)C(=O)N1 (stereo partly drawn) [Compound 130, 3-(1-oxo-5-(((1S,2S)-2-(3-phenylazetidin-1-yl)cyclohexyl)oxy)isoindolin-2-yl)piperidine-2,6-dione 2-hydroxypropane-1,2,3-tricarboxylate]"
14,7.96,"O=C1CCC(N2Cc3cc(O[C@H]4CCCC[C@@H]4N4CC(c5ccccc5)C4)c(F)cc3C2=O)C(=O)N1 (single isomer, unassigned) [Compound 52]"
15,7.96,"O=C1CCC(N2Cc3cc(O[C@H]4CCCCC[C@@H]4N4CC(c5ccccc5)C4)ccc3C2=O)C(=O)N1 (stereo partly drawn) [Compound 131, 3-(1-oxo-5-(((1S,2S)-2-(3-phenylazetidin-1-yl)cycloheptyl)oxy)isoindolin-2-yl)piperidine-2,6-dione]"
16,7.28,"O=C1CCC(N2Cc3c(ccc(O[C@H]4CCCC[C@@H]4N4CC(c5ccccc5)C4)c3F)C2=O)C(=O)N1 (single isomer, unassigned) [Compound 65]"
17,8.40,"O=C1CCC(N2Cc3cc(O[C@H]4CCCC[C@@H]4N4CC(c5ccc(F)cc5)C4)ccc3C2=O)C(=O)N1 (single isomer, unassigned) [Compound 50]"
